“Also recorded” adds a separate entry of the source.

Data on 3 compounds can be found in patent US7186519B2 (priority 2002, dated 2007).

One assay concerns 25RA cells. Type of assay: cell-based, Chinese hamster.
In the next assay the test system is CT43 cells. In kind it is cell-based, Chinese hamster.
Assay [1] concerns CT43 cells expressing NPC1-GFP. In words: Fluorescence microscopy of BCθ binding in NPC1-GFP transfected cells. The settings on record: CT43 cells expressing NPC1-GFP exposed to U18666A.
Protocol: To examine the effect of NPC1 expression on intracellular BCθ binding to cholesterol in CT43 cells, a construct comprising a GFP-tagged NPC1 protein (NPC1-GFP) was prepared and introduced into CT43 cells by transient transfection. […] After BCθ binding, cells containing NPC1-GFP were viewed in the red channel to detect the BCθ fluorescence signal or in the green channel to detect the NPC1-GFP fluorescence signal. The two fluorescence signals were then merged to examine their degree of overlap.
2-hydroxypropyl-β-cyclodextrin (SIGMA™-Aldrich, St. Louis, Mo.) was added to culture medium using well-known methods (Rothblat, et al. (1999) supra). U18666A was provided to the cells using standard conditions (Lange, et al. (2000) supra; Liscum and Faust (1989) supra).
Transient transfection of NPC1-GFP was performed in CT43 cells using FUGENE™ 6 according to manufacturer's instructions (Roche, Indianapolis, Ind.). Transfected cells were imaged within 2–3 days of transfection.
Cells were grown on glass coverslips in six-well plates and processed for fluorescence studies. […]

With `CCCCC[C@@H](O)[C@H]1C(=O)O[C@H](C)[C@@H](O)/C=C/C=C/C=C/C=C/C=C(\C)[C@@H](O)C[C@H](O)C[C@H](O)C[C@H](O)C[C@H](O)C[C@H](O)C[C@@H]1O` [filipin], the “Binding to intracellular cholesterol” value in the assay on 25RA cells was “not in 25RA cells”; in the assay on CT43 cells, “able to bind intracellular cholesterol in CT43 cells”.

On to 2-hydroxypropyl-b-cyclodextrin [hpCD], for which the “Effect on BCθ fluorescence signal (intracellular cholesterol)” value in the assay on CT43 cells is reported as “both cell lines retained most of the BCθ fluorescence signals; also recorded: retained much of the signal”.

For the compound `CCN(CC)CCO[C@H]1CC[C@@]2(C)C(=CC[C@@H]3[C@@H]2CC[C@]2(C)C(=O)CC[C@@H]32)C1` [U18666A], the “Effect on binding of BCθ to intracellular cholesterol” value in assay [1] is reported as “binding of BCθ to intracellular cholesterol persisted”.
